Measurements as given in patent publication US20120329787A1, “FUNGICIDAL PYRANONES AND OXAZINONES” (E.I. DU PONT DE NEMOURS AND COMPANY, priority 2011, published 2012).
Marks after values point to notes of the source that are not given here.

Experiments:
Assay type in all cases: in vivo
[1] = test system: Botrytis cinerea; assay: Test A: tomato Botrytis, spray on tomato seedlings the day before inoculation; details: for pest or weed control at 200 ppm: Botrytis cinerea, 120 h, read-out: Test A rating (100 = 100% disease control, 0 = no disease control)
Excerpt: General protocol for preparing test suspensions for Tests A-I: the test compounds were first dissolved in acetone in an amount equal to 3% of the final volume and then suspended at the desired concentration (in ppm) in acetone and purified water (50/50 mix by volume) containing 250 ppm of the surfactant Trem® 014 (polyhydric alcohol esters). The resulting test suspensions were then used in Tests A-I. Spraying a 200 ppm test suspension to the point of run-off on the test plants was the equivalent of a rate of 500 g/ha. […] (An asterisk “*” next to the rating value indicates a 40 ppm test suspension was used.) The test suspension was sprayed to the point of run-off on tomato seedlings. The following day, the seedlings were inoculated with a spore suspension of Botrytis cinerea (the causal agent of tomato Botrytis) and incubated in a saturated atmosphere at 20° C. for 48 h, and then moved to a growth chamber at 24° C. for 3 additional days, after which time visual disease ratings were made. […] A dash (-) indicates no test results. All results are for 200 ppm except where followed by an asterisk “*”, which indicates a 40 ppm.

[2] = test system: Alternaria solani; assay: Test B: tomato early blight, spray on tomato seedlings the day before inoculation; details: for pest or weed control at 200 ppm: Alternaria solani, 168 h, read-out: Test B rating (100 = 100% disease control, 0 = no disease control)
Excerpt: General protocol for preparing test suspensions for Tests A-I: the test compounds were first dissolved in acetone in an amount equal to 3% of the final volume and then suspended at the desired concentration (in ppm) in acetone and purified water (50/50 mix by volume) containing 250 ppm of the surfactant Trem® 014 (polyhydric alcohol esters). The resulting test suspensions were then used in Tests A-I. Spraying a 200 ppm test suspension to the point of run-off on the test plants was the equivalent of a rate of 500 g/ha. […] (An asterisk “*” next to the rating value indicates a 40 ppm test suspension was used.) The test suspension was sprayed to the point of run-off on tomato seedlings. The following day, the seedlings were inoculated with a spore suspension of Alternaria solani (the causal agent of tomato early blight) and incubated in a saturated atmosphere at 27° C. for 48 h, and then moved to a growth chamber at 20° C. for 5 days, after which time visual disease ratings were made. […] A dash (-) indicates no test results. All results are for 200 ppm except where followed by an asterisk “*”, which indicates a 40 ppm.

[3] = test system: Septoria nodorum; assay: Test E: Septoria glume blotch, spray on wheat seedlings the day before inoculation
Excerpt: General protocol for preparing test suspensions for Tests A-I: the test compounds were first dissolved in acetone in an amount equal to 3% of the final volume and then suspended at the desired concentration (in ppm) in acetone and purified water (50/50 mix by volume) containing 250 ppm of the surfactant Trem® 014 (polyhydric alcohol esters). The resulting test suspensions were then used in Tests A-I. Spraying a 200 ppm test suspension to the point of run-off on the test plants was the equivalent of a rate of 500 g/ha. […] (An asterisk “*” next to the rating value indicates a 40 ppm test suspension was used.) The test suspension was sprayed to the point of run-off on wheat seedlings. […] A dash (-) indicates no test results. All results are for 200 ppm except where followed by an asterisk “*”, which indicates a 40 ppm.

[4] = test system: Septoria tritici; assay: Test F: wheat leaf blotch, spray on wheat seedlings the day before inoculation; details: for pest or weed control at 200 ppm: Zymoseptoria tritici, 504 h, read-out: Test F rating (100 = 100% disease control, 0 = no disease control)
Excerpt: General protocol for preparing test suspensions for Tests A-I: the test compounds were first dissolved in acetone in an amount equal to 3% of the final volume and then suspended at the desired concentration (in ppm) in acetone and purified water (50/50 mix by volume) containing 250 ppm of the surfactant Trem® 014 (polyhydric alcohol esters). The resulting test suspensions were then used in Tests A-I. Spraying a 200 ppm test suspension to the point of run-off on the test plants was the equivalent of a rate of 500 g/ha. […] (An asterisk “*” next to the rating value indicates a 40 ppm test suspension was used.) The test suspension was sprayed to the point of run-off on wheat seedlings. The following day, the seedlings were inoculated with a spore suspension of Septoria tritici (the causal agent of wheat leaf blotch) and incubated in a saturated atmosphere at 24° C. for 48 h, and then the seedlings were moved to a growth chamber at 20° C. for 19 additional days, after which time visual disease ratings were made. […] A dash (-) indicates no test results. All results are for 200 ppm except where followed by an asterisk “*”, which indicates a 40 ppm.

[5] = test system: Puccinia recondita f. sp. tritici; assay: Test G: wheat leaf rust, spray on wheat seedlings after inoculation (curative); details: sprayed after inoculation; for pest or weed control at 200 ppm: Puccinia recondita, 96 h, read-out: Test G rating (100 = 100% disease control, 0 = no disease control)
Excerpt: General protocol for preparing test suspensions for Tests A-I: the test compounds were first dissolved in acetone in an amount equal to 3% of the final volume and then suspended at the desired concentration (in ppm) in acetone and purified water (50/50 mix by volume) containing 250 ppm of the surfactant Trem® 014 (polyhydric alcohol esters). The resulting test suspensions were then used in Tests A-I. Spraying a 200 ppm test suspension to the point of run-off on the test plants was the equivalent of a rate of 500 g/ha. […] (An asterisk “*” next to the rating value indicates a 40 ppm test suspension was used.) Wheat seedlings were inoculated with a spore suspension of Puccinia recondita f. sp. tritici (the causal agent of wheat leaf rust) and incubated in a saturated atmosphere at 20° C. for 24 h, and then moved to a growth chamber at 20° C. for 2 days. At the end of this time, the test suspension was sprayed to the point of run-off, and then the seedlings were moved to a growth chamber at 20° C. for 4 days after which time visual disease ratings were made. […] A dash (-) indicates no test results. All results are for 200 ppm except where followed by an asterisk “*”, which indicates a 40 ppm.

[6] = test system: Puccinia recondita f. sp. tritici; assay: Test H: wheat leaf rust, spray on wheat seedlings the day before inoculation; details: sprayed before inoculation; for pest or weed control at 200 ppm: Puccinia recondita, 168 h, read-out: Test H rating (100 = 100% disease control, 0 = no disease control)
Excerpt: General protocol for preparing test suspensions for Tests A-I: the test compounds were first dissolved in acetone in an amount equal to 3% of the final volume and then suspended at the desired concentration (in ppm) in acetone and purified water (50/50 mix by volume) containing 250 ppm of the surfactant Trem® 014 (polyhydric alcohol esters). The resulting test suspensions were then used in Tests A-I. Spraying a 200 ppm test suspension to the point of run-off on the test plants was the equivalent of a rate of 500 g/ha. […] (An asterisk “*” next to the rating value indicates a 40 ppm test suspension was used.) The test suspension was sprayed to the point of run-off on wheat seedlings. The following day, the seedlings were inoculated with a spore suspension of Puccinia recondita f. sp. tritici (the causal agent of wheat leaf rust) and incubated in a saturated atmosphere at 20° C. for 24 h, and then moved to a growth chamber at 20° C. for 6 days, after which time visual disease ratings were made Results for Tests A-I are given in Table A. […] A dash (-) indicates no test results. All results are for 200 ppm except where followed by an asterisk “*”, which indicates a 40 ppm.

[7] = test system: Erysiphe graminis f. sp. tritici; assay: Test I: wheat powdery mildew, spray on wheat seedlings the day before inoculation; details: for pest or weed control at 200 ppm: Blumeria graminis, 168 h, read-out: Test I rating (100 = 100% disease control, 0 = no disease control)
Excerpt: General protocol for preparing test suspensions for Tests A-I: the test compounds were first dissolved in acetone in an amount equal to 3% of the final volume and then suspended at the desired concentration (in ppm) in acetone and purified water (50/50 mix by volume) containing 250 ppm of the surfactant Trem® 014 (polyhydric alcohol esters). The resulting test suspensions were then used in Tests A-I. Spraying a 200 ppm test suspension to the point of run-off on the test plants was the equivalent of a rate of 500 g/ha. […] (An asterisk “*” next to the rating value indicates a 40 ppm test suspension was used.) The test suspension was sprayed to the point of run-off on wheat seedlings. The following day, the seedlings were inoculated with a spore dust of Erysiphe graminis f. sp. tritici, (the causal agent of wheat powdery mildew) and incubated in a growth chamber at 20° C. for 7 days, after which time visual disease ratings were made. […] A dash (-) indicates no test results. All results are for 200 ppm except where followed by an asterisk “*”, which indicates a 40 ppm.

[8] = 40 ppm test suspension (asterisk)

| SMILES | Test I rating (100 = 100% disease control, 0 = no disease control) ([7]; 200 ppm test suspension) | Test A rating (100 = 100% disease control, 0 = no disease control) [1, 8] | Test B rating (100 = 100% disease control, 0 = no disease control) [2, 8] | Test E rating (100 = 100% disease control, 0 = no disease control) [3, 8] | Test F rating (100 = 100% disease control, 0 = no disease control) [4, 8] | Test G rating (100 = 100% disease control, 0 = no disease control) [5, 8] | Test H rating (100 = 100% disease control, 0 = no disease control) [6, 8] | also measured |
| --- | --- | --- | --- | --- | --- | --- | --- | --- |
| COc1cccc(-c2c(-c3ccc(F)cc3F)c(C)oc(=O)c2-c2ccccc2)c1 [Compound 29] | 55% |  |  |  |  |  |  | Test A rating (100 = 100% disease control, 0 = no disease control) ([1]; 200 ppm test suspension): 99%; Test B rating (100 = 100% disease control, 0 = no disease control) ([2]; 200 ppm test suspension): 93%; Test E rating (100 = 100% disease control, 0 = no disease control) ([3]; 200 ppm test suspension): 64%; Test F rating (100 = 100% disease control, 0 = no disease control) ([4]; 200 ppm test suspension): 99%; Test G rating (100 = 100% disease control, 0 = no disease control) ([5]; 200 ppm test suspension): 32%; Test H rating (100 = 100% disease control, 0 = no disease control) ([6]; 200 ppm test suspension): 100% |
| Cc1oc(=O)c(-c2ccccc2)c(-c2ccccc2Cl)c1-c1ccccc1F [Compound 30] |  | 99* % | 0* % | 0* % | 94* % | 0* % | 91* % | Test I rating (100 = 100% disease control, 0 = no disease control) [7, 8]: 0* % |
| Cc1oc(=O)c(-c2ccccc2)c(-c2ccccc2Cl)c1-c1ccc(F)cc1F [Compound 31] | 0% | 100* % | 0* % | 0* % | 98* % | 96* % | 99* % |  |
| COc1cc(OC)cc(-c2c(-c3ccc(F)cc3F)c(C)oc(=O)c2-c2ccccc2F)c1 [Compound 33, 5-(2,4-difluorophenyl)-4-(3,5-dimethoxyphenyl)-3-(2-fluorophenyl)-6-methyl-2H-pyran-2-one] |  |  |  |  |  |  |  | pest or weed control at 200 ppm ([1]; 200 ppm test suspension): 99%; pest or weed control at 200 ppm ([2]; 200 ppm test suspension): 100%; pest or weed control at 40 ppm ([3]; Parastagonospora nodorum, 264 h, 40 ppm test suspension (asterisk), read-out: Test E rating (100 = 100% disease control, 0 = no disease control)): 99%; pest or weed control at 200 ppm ([4]; 200 ppm test suspension): 98%; pest or weed control at 200 ppm ([5]; 200 ppm test suspension): 99%; pest or weed control at 200 ppm ([6]; 200 ppm test suspension): 100%; pest or weed control at 200 ppm ([7]; 200 ppm test suspension): 76% |
| COc1cccc(-c2c(-c3ccc(F)cc3F)c(C)oc(=O)c2-c2ccccc2F)c1 [Compound 34] | 90% |  |  |  |  |  |  | Test A rating (100 = 100% disease control, 0 = no disease control) ([1]; 200 ppm test suspension): 100%; Test B rating (100 = 100% disease control, 0 = no disease control) ([2]; 200 ppm test suspension): 99%; Test E rating (100 = 100% disease control, 0 = no disease control) ([3]; 200 ppm test suspension): 99%; Test F rating (100 = 100% disease control, 0 = no disease control) ([4]; 200 ppm test suspension): 99%; Test G rating (100 = 100% disease control, 0 = no disease control) ([5]; 200 ppm test suspension): 95%; Test H rating (100 = 100% disease control, 0 = no disease control) ([6]; 200 ppm test suspension): 100% |
| Cc1oc(=O)c(-c2ccccc2F)c(-c2ccccc2Cl)c1-c1ccc(F)cc1F [Compound 35] | 97% | 100* % | 68* % | 0* % | 99* % | 99* % | 0* % |  |
| COc1cc(OC)cc(-c2c(-c3c(F)cc(OC)cc3F)c(C)oc(=O)c2-c2ccccc2F)c1 [Compound 39] | 79% | 100* % | 100* % | 100* % | 100* % | 82* % | 100* % |  |
| Cc1oc(=O)c(C)c(-c2ccc(F)cc2F)c1Br [Compound 41, 5-bromo-4-(2,4-difluorophenyl)-3,6-dimethyl-2H-pyran-2-one] |  |  |  |  |  |  |  | pest or weed control at 200 ppm ([1]; 200 ppm test suspension): 67%; pest or weed control at 200 ppm ([2]; 200 ppm test suspension): 0%; pest or weed control at 200 ppm ([3]; Parastagonospora nodorum, 264 h, 200 ppm test suspension, read-out: Test E rating (100 = 100% disease control, 0 = no disease control)): 0%; pest or weed control at 200 ppm ([4]; 200 ppm test suspension): 0%; pest or weed control at 200 ppm ([5]; 200 ppm test suspension): 0%; pest or weed control at 200 ppm ([6]; 200 ppm test suspension): 0%; pest or weed control at 200 ppm ([7]; 200 ppm test suspension): 0% |
